The source of these data is US20250288587A1, “Methods of Treating Fibrosis” (Athira Pharma, Inc., priority 2022, published 2025).

Where a SMILES comes first, the peptide text is derived from it. [ ]: non-standard residue; d: D form. The star is where a group is joined. Hexanoyl = CCCCCC(=O)*; Ahx = NCCCCCC(=O)O

The test system of experiment [1] is C57BL/6 mice, bleomycin-induced pulmonary fibrosis. Briefly: Bleomycin-induced pulmonary fibrosis in mice. The class given is in vivo. Further details: key to Collagen, improvement in BLM-induced alterations versus disease control / Alpha-Smooth Muscle Actin, improvement in BLM-induced alterations versus disease control / Body Weight, improvement in BLM-induced alterations versus disease control / Right Lung Weight, improvement in BLM-induced alterations versus disease control / Hydroxyproline, improvement in BLM-induced alterations versus disease control: + = >5-25% improvement vs disease control; ++ = >26-50% improvement vs disease control; +++ = >51-100% improvement v disease control; NS means not significant. Here is the method:
Lung fibrosis in C57BL/6 mice is induced by a single […] injection of the chemotherapy drug bleomycin. Mice are treated with vehicle or test compound. At termination (study day 28), one lung is weighed, with increased weight indicating more advanced fibrosis. Lung tissue is also homogenized for hydroxyproline, collagen, and TGF-β quantification. Lung tissue is also formalin-fixed and further processed for H&E, collagen morphometry, Ashcroft's score, and both α-SMA and TUNEL expression analyses. Plasma is analyzed by multiplex bead array for MMP-2, MMP-9, IL-1β, IL-6, IL-12, and TNF-α expression.
The experimental design described in Example B1 with the following changes was used to assess the ability of Compound 1a to reduce pulmonary fibrosis. Briefly, Male C57BL/6 mice (Envigo) […] were used. The mice were 3.5-4 months old and ˜24-30 g by weight. On day −1 animals were randomized based on body weight and the animals were assigned with a permanent number by ear notching. Cages were identified by cage cards indicating the study code, group number, sex, dose, cage number, number of animals and animal number details.
On day 0, all animals (except the sham control animals) were administered bleomycin (0.03 U in 50 μl normal saline) intratracheally (i.t.) under Ketamine+Xylazine anesthesia. The sham control animals were dosed with 50 μl of normal saline intratracheally. Pirfenidone was used as a positive control; this compound is known to downregulate growth factors and procollagens to reduce fibrosis and is an approved drug for the treatment of idiopathic pulmonary fibrosis.
Vehicle, pirfenidone and test Compound 1a dosing was initiated from day 3 to day 21 as described in the following Table 2. On day 21 whole blood was collected 1-hour post-dose into EDTA and then processed to plasma. Right lungs were then collected, weighed, snap frozen and later homogenized for biochemical analysis. Hydroxyproline, collagen and TGF-Beta levels were measured in the right lung homogenates.

For a further experiment, the system named is MRC-5 cells. In words: TGFβ-stimulated αSMA expression in MRC-5 cells (HTRF). The class given is cell-based. Also noted: key to Significant reduction in αSMA via HTRF compared to TGFβ alone: NS = no statistically significant change in aSMA expression; + = p < 0.05; ++ = p < 0.01; +++ = p < 0.005; ++++ = p < 0.001. The conditions noted are these: for Significant reduction in αSMA via HTRF compared to TGFβ alone: TGFβ 1 ng/ml, 48 h. As to the method: In this study, pulmonary-derived immortalized fibroblasts, MRC-5 cells, were cultured as a model of the early transition to fibrosis, and αSMA expression was measured using an immunodetection system driven by homogenous time-resolved fluorescence (HTRF) technology. This detection system produces a fluorescent signal in the presence of αSMA in cell lysates. Cells were grown to confluence in 96-well culture plates in complete media, and then transitioned to serum-free media for 2 hours. Next TGFβ (final 1 ng/ml in serum-free media) was added to the cells to stimulate the fibrotic transition. After 2 hours, media containing either HGF or HGF combined with one of the compounds was added to the cells. After incubation for 48 hours, cells were lysed and processed for αSMA HTRF to detect the levels of αSMA expression and compared to TGFβ-stimulated cultures. Statistical analysis consisted of 1-way ANOVA with a Dunnett's multiple comparison's post-test.

Experiment [2] deals with BALB/c mice, CCl4 mouse model of liver fibrosis. In words: CCl4-induced liver fibrosis, plasma AST. In kind it is in vivo. Here is the method:
Liver fibrosis in BALB/c mice was induced by biweekly intraperitoneal injections of carbon tetrachloride (CCl4) from study day 0 to 43. Mice were treated with vehicle, Compound 1a, or positive control, SB535334, beginning at study day 21. At termination (study day 43), plasma was tested for liver function via levels of aspartate aminotransferase (AST).
AST can be used as a marker of liver damage, because increased levels are released in the blood stream in chronic liver disease.

The test system of experiment [3] is THP-1-differentiated macrophages. Briefly: Pro-inflammatory cytokine expression in LPS-challenged THP-1-differentiated macrophages. In kind it is cell-based, human. Further details: key to IL-6, significant reduction in culture supernatant vs LPS treatment / TNF-α, significant reduction in culture supernatant vs LPS treatment / IL-1β, significant reduction in culture supernatant vs LPS treatment: “NS” indicates a non-significant reduction in the indicated cytokine; “+” indicates a p value <0.05 in Tukey post test; “++” indicates a p value <0.01 in Tukey post test. The conditions noted are these: for IL-1β, significant reduction in culture supernatant vs LPS treatment / IL-6, significant reduction in culture supernatant vs LPS treatment / TNF-α, significant reduction in culture supernatant vs LPS treatment: 20 min pre-treatment, 24 hrs LPS. Here is the method:
Differentiation with PMA causes THP-1 monocyte cells to acquire functional and morphological resemblance to macrophages. LPS interacts with THP-1 differentiated macrophage through the toll-like receptor 4, triggering the inflammatory response and stimulating pro-inflammatory cytokine release and eventually leading to cellular death. Compounds were tested to determine their anti-inflammatory effects on LPS-challenged macrophage cultures. THP-1-differentiated macrophages were treated with test compounds for 20 minutes, followed by 24 hrs of LPS challenge. Culture supernatants were then collected to analyzed for the presence of pro-inflammatory cytokines: […], interleukin 6 (IL-6) and tumor necrosis factor α (TNF-α).
Cytokine quantification in cell culture supernatants was accomplished by HTRF kits to assess levels of IL-1β (Human IL-1β kit, #62HIL1BPEG, Cisbio) and IL-6 (Human IL-6 kit, 62HIL06PET, Cisbio), and by ELISA to determine the levels of TNF-α (Human TNF-α ELISA kit, KHC3011, ThermoFisher).
Data analysis was performed via 1-way ANOVA with Tukey post-test compared to LPS treatment cultures using Prism statistical software (GraphPad). Tabular data indicates significance of reduction in culture supernatants for the indicated analyte at the indicated doses.

Setting [4] is: dose 100 mg/kg PO twice daily, right lung homogenate, day 21.

`Cc1ccc(=O)n(-c2ccccc2)c1` [Pirfenidone, reference compound]: the “bleomycin-induced increases in TGF-β in right lung homogenates” value in experiment [1] (all doses, day 21) is reported as “significantly protected against bleomycin-induced increases in TGF-β”. For the same compound, in experiment [1] (all treatment groups, over the study period), the “protection against bleomycin-induced body weight loss” value was “did not protect against body weight loss”. The “Body Weight, improvement in BLM-induced alterations versus disease control” value in experiment [1] (dose 100 mg/kg PO twice daily, days 3-21) was “NS”. Moreover, the “Right Lung Weight, improvement in BLM-induced alterations versus disease control” value in experiment [1] (dose 100 mg/kg PO twice daily, days 3-21, day 21) is given as “+ (+ = >5-25% improvement vs disease control)”. In addition, the “Alpha-Smooth Muscle Actin, improvement in BLM-induced alterations versus disease control” value in experiment [1] (dose 100 mg/kg PO twice daily, day 21) is on record as “+ (+ = >5-25% improvement vs disease control)”. Moreover, in experiment [1] (setting [4]), the “Collagen, improvement in BLM-induced alterations versus disease control” value is “++ (++ = >26-50% improvement vs disease control)”; the “Hydroxyproline, improvement in BLM-induced alterations versus disease control” value is “NS”; the “TGF-Beta, improvement in BLM-induced alterations versus disease control” value was “+++ (+++ = >51-100% improvement v disease control)”. Also, the “alpha-smooth muscle actin morphometory” value in experiment [1] (other doses of Compound 1a, pirfenidone doses, day 21) was “insignificant decreases”.

With “HGF: Hepatocyte growth factor protein, added alone or with test compounds”, the figures for the “Significant reduction in αSMA via HTRF compared to TGFβ alone” value (shortened to “Significant reduction in αSMA via HTRF”) in the experiment on MRC-5 cells (HGF 0.01 ng/ml alone), with MRC-5 cells (HGF 1 ng/ml alone) and in the experiment with MRC-5 cells (HGF 10 ng/ml alone) were “NS”, “NS” and “+++ (+++ = p < 0.005)”, respectively. Further, in the experiment on MRC-5 cells (TGFβ-stimulated MRC-5 cells), the “αSMA expression, HGF alone” value is listed as “significantly reduce αSMA expression at high (10 ng/ml) but not low (0.01 or 1 ng/ml) concentrations”.

On to `Cc1cccc(-c2[nH]c(C(C)(C)C)nc2-c2ccc3nccnc3c2)n1` [SB525334, reference compound], for which the “AST in plasma, improvement compared to disease control” value in experiment [2] (Dose 30, from study day 21, termination day 43) is on record as “− (− = change of <5% compared to disease control)”. Besides, the “AST levels in plasma compared to CCl4-treated mice receiving vehicle” value in experiment [2] (positive control) is recorded as “significant increases”.

Take `CCCCCC(=O)N[C@@H](Cc1ccc(O)cc1)C(=O)N[C@H](C(=O)NCCCCCC(N)=O)[C@@H](C)CC` [Compound A19-AM, Dihexa] (Hexanoyl-Tyr-Ile-[Ahx]-NH2): the αSMA expression result in the experiment with MRC-5 cells (1 uM, combined with 0.01 ng/ml HGF) was “significantly reduced αSMA”. Besides, the “Significant reduction in αSMA via HTRF” value in the experiment with MRC-5 cells (test compound 1 nM, HGF 0.01 ng/ml) was “NS”. Further, the “Significant reduction in αSMA via HTRF” value with MRC-5 cells (test compound 1 μM, HGF 0.01 ng/ml) is “++++ (++++ = p < 0.001)”. Besides, in experiment [3] (0.1 nM), the “IL-1β, significant reduction in culture supernatant vs LPS treatment” value (from here on “IL-1β, significant reduction”) was “NS”; the “IL-6, significant reduction in culture supernatant vs LPS treatment” value (“IL-6, significant reduction” for short) is given as “NS”; the “TNF-α, significant reduction in culture supernatant vs LPS treatment” value (“TNF-α, significant reduction” below) is “NS”. Besides, in experiment [3] (10 nM), the “IL-1β, significant reduction” value is reported as “++ (“++” indicates a p value <0.01 in Tukey post test)”; the “IL-6, significant reduction” value is “+ (“+” indicates a p value <0.05 in Tukey post test)”; the “TNF-α, significant reduction” value was “+ (“+” indicates a p value <0.05 in Tukey post test)”. In experiment [3] (1000 nM), the “IL-1β, significant reduction” value is “+ (“+” indicates a p value <0.05 in Tukey post test)”; the “IL-6, significant reduction” value is “++ (“++” indicates a p value <0.01 in Tukey post test)”; the “TNF-α, significant reduction” value is listed as “+ (“+” indicates a p value <0.05 in Tukey post test)”. Further, in experiment [3] (at at least one tested dose), the “expression of IL-1β and TNF-α” value is “significantly reduced”; the “expression of IL-6” value is “significantly reduced”.
